# Calls of active or inactive are those of the source. No cut-off for these calls is given here.
# Key:
# [1] = system: NCI-H1581; experiment: cells; details: Homo sapiens, NCI-H1581, 72 h
# Description: Antiproliferative activity against FGFR1 amplified human NCI-H1581 cells after 72 hrs by CCK8 or MTT assay
# [2] = molecular target: ALK tyrosine kinase receptor (Homo sapiens, UniProt Q9UM73); experiment: Inhibition of recombinant ALK (unknown origin) using poly (Glu,Tyr) 4:1 as substrate after 60 mins by ELISA
# [3] = molecular target: T1, Fibroblast growth factor receptor 3 (Homo sapiens, UniProt P22607); experiment: Inhibition of recombinant FGFR3 (unknown origin) using poly (Glu,Tyr) 4:1 as substrate after 60 mins by ELISA
# [4] = Cmax in Sprague-Dawley rat at 10 mg/kg, po administered via gavage by HPLC-MS/MS analysis; assay type: ADME, organism-based; set-up: dose 10 mg/kg, route oral; details: in vivo
# [5] = molecular target: Vascular endothelial growth factor receptor 2 (Homo sapiens, UniProt P35968); experiment: Inhibition of recombinant VEGFR2 (unknown origin) using poly (Glu,Tyr) 4:1 as substrate after 60 mins by ELISA
# [6] = molecular target: T2, Fibroblast growth factor receptor 2 (Homo sapiens, UniProt P21802); experiment: Inhibition of FGFR2 in human SNU16 cells assessed as reduction in PLCgamma phosphorylation at 0.1 to 10 nM after 2 hrs by Western blot analysis; assay type: cell-based
# Target sequence in this assay (P21802 22-821 limits assumed): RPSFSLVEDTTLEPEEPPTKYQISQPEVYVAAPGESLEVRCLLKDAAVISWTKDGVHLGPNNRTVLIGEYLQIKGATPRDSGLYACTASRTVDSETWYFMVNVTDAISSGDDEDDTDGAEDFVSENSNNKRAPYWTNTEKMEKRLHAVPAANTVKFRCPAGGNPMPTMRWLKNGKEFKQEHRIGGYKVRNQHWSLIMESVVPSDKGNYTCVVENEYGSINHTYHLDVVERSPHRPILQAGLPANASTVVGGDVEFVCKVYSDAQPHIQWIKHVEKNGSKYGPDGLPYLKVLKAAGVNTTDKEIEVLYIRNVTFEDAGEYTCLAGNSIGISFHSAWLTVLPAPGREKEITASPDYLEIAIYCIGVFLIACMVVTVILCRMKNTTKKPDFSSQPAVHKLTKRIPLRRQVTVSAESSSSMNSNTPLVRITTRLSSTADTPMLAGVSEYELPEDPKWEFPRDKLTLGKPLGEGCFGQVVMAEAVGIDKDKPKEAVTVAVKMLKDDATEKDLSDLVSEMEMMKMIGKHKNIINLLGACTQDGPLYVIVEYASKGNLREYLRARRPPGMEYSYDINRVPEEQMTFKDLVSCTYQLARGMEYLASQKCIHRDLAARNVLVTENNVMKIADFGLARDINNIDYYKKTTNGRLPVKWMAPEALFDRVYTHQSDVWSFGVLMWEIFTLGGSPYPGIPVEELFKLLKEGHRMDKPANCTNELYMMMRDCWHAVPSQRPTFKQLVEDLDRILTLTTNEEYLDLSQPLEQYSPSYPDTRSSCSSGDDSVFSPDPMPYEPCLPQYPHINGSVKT
# [7] = system: SNU-16; experiment: Antitumor activity against FGFR2 amplified human SNU16 cells xenografted in po dosed nude mouse assessed as tumor growth inhibition administered once daily for 21 days; assay type: functional, organism-based
# [8] = molecular target: T2, Fibroblast growth factor receptor 2; experiment: Inhibition of recombinant FGFR2 (unknown origin) using poly (Glu,Tyr) 4:1 as substrate after 60 mins by ELISA
# [9] = molecular target: Tyrosine-protein kinase BTK (Homo sapiens, UniProt Q06187); experiment: Inhibition of recombinant BTK (unknown origin) using poly (Glu,Tyr) 4:1 as substrate after 60 mins by ELISA
# [10] = system: BaF3; experiment: cells; details: Mus musculus, BaF3, 72 h
# Description: Antiproliferative activity against mouse BAF3 cells expressing TEL-fused FGFR4 kinase after 72 hrs by CCK8 or MTT assay
# [11] = system: SNU-16; experiment: cells; details: Homo sapiens, SNU-16, 72 h
# Description: Antiproliferative activity against FGFR2 amplified human SNU16 cells after 72 hrs by CCK8 or MTT assay
# [12] = system: RT-112; experiment: cells; details: Homo sapiens, RT-112, 72 h
# Description: Antiproliferative activity against FGFR3 amplified human RT112 cells after 72 hrs by CCK8 or MTT assay
# [13] = system: NCI-H1581; experiment: Antitumor activity against FGFR1 amplified human NCI-H1581 cells xenografted in po dosed nude mouse assessed as tumor growth inhibition administered once daily for 14 days; assay type: functional, organism-based
# [14] = molecular target: T3, Fibroblast growth factor receptor 1 (Homo sapiens, UniProt P11362); experiment: Irreversible inhibition of FGFR1 (unknown origin) at 100 times IC50 concentration using 5-FAM-KKSRGDYMTMQIG-CONH2 peptide as substrate preincubated for 30 mins followed 100 fold dilution with substrate and ATP and measured for 1 hr
# Target sequence in this assay (P11362 22-822 limits assumed): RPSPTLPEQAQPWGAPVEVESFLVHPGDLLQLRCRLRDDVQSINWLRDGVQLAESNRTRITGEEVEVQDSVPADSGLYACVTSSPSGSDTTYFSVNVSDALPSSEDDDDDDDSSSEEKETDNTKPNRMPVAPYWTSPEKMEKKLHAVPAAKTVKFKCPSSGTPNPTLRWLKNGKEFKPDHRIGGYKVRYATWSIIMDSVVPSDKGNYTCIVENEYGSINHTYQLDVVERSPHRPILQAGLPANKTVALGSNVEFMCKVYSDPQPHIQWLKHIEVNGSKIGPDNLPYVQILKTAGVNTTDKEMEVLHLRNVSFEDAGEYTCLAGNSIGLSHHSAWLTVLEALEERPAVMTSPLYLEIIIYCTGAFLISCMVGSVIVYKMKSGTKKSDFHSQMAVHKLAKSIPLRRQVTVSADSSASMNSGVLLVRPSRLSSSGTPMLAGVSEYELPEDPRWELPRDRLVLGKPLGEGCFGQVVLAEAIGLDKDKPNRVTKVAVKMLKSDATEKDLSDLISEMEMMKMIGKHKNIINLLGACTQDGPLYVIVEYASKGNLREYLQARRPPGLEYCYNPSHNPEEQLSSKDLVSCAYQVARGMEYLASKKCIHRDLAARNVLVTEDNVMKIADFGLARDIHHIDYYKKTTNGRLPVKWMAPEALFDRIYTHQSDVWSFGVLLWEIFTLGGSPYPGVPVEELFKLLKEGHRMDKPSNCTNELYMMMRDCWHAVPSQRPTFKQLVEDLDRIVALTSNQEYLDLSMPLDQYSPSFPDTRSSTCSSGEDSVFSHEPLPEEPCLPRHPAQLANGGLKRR
# [15] = Terminal half life in Sprague-Dawley rat at 10 mg/kg, po administered via gavage by HPLC-MS/MS analysis; assay type: ADME, organism-based; details: in vivo, read-out: beta t1/2 (converted)
# [16] = molecular target: Platelet-derived growth factor receptor beta (Homo sapiens, UniProt P09619); experiment: Inhibition of recombinant PDGFRbeta (unknown origin) using poly (Glu,Tyr) 4:1 as substrate after 60 mins by ELISA
# [17] = system: NCI-H1581; experiment: Antitumor activity against FGFR1 amplified human NCI-H1581 cells xenografted in nude mouse assessed as tumor growth inhibition at 100 mg/kg, po administered once daily for 14 days relative to control; assay type: functional; details: 336 h, read-out: TGI
# [18] = molecular target: T2, Fibroblast growth factor receptor 2; experiment: Inhibition of FGFR2 phosphorylation in human SNU16 cells at 0.1 to 10 nM after 2 hrs by Western blot analysis; assay type: cell-based
# Target sequence in this assay (P21802 22-821 limits assumed): as the sequence (P21802 22-821 limits assumed) above
# [19] = molecular target: Insulin-like growth factor 1 receptor (Homo sapiens, UniProt P08069); experiment: Inhibition of recombinant IGF1R (unknown origin) using poly (Glu,Tyr) 4:1 as substrate after 60 mins by ELISA
# [20] = molecular target: Proto-oncogene tyrosine-protein kinase Src (Homo sapiens, UniProt P12931); experiment: Inhibition of recombinant c-SRC (unknown origin) using poly (Glu,Tyr) 4:1 as substrate after 60 mins by ELISA
# [21] = molecular target: Ephrin type-A receptor 2 (Homo sapiens, UniProt P29317); experiment: Inhibition of recombinant EPHA2 (unknown origin) using poly (Glu,Tyr) 4:1 as substrate after 60 mins by ELISA
# [22] = molecular target: T3, Fibroblast growth factor receptor 1; experiment: Inhibition of FGFR1 phosphorylation in human KG1 cells at 5 to 20 nM after 2 hrs by Western blot analysis; assay type: cell-based
# Target sequence in this assay (P11362 22-822 limits assumed): as the sequence (P11362 22-822 limits assumed) above
# [23] = molecular target: T3, Fibroblast growth factor receptor 1; experiment: Inhibition of FGFR1 in human KG1 cells assessed as reduction in ERK phosphorylation at 5 to 20 nM after 2 hrs by Western blot analysis; assay type: cell-based
# Target sequence in this assay (P11362 22-822 limits assumed): as above
# [24] = molecular target: Fibroblast growth factor receptor 4 (Homo sapiens, UniProt P22455); experiment: Inhibition of recombinant FGFR4 (unknown origin) using poly (Glu,Tyr) 4:1 as substrate after 60 mins by ELISA
# [25] = molecular target: Tyrosine-protein kinase ABL1 (Homo sapiens, UniProt P00519); experiment: Inhibition of recombinant ABL (unknown origin) using poly (Glu,Tyr) 4:1 as substrate after 60 mins by ELISA
# [26] = molecular target: T2, Fibroblast growth factor receptor 2; experiment: Inhibition of FGFR2 in human SNU16 cells assessed as reduction in ERK phosphorylation at 0.1 to 10 nM after 2 hrs by Western blot analysis; assay type: cell-based
# Target sequence in this assay (P21802 22-821 limits assumed): as the sequence (P21802 22-821 limits assumed) above
# [27] = molecular target: Vascular endothelial growth factor receptor 1 (Homo sapiens, UniProt P17948); experiment: Inhibition of recombinant FLT1 (unknown origin) using poly (Glu,Tyr) 4:1 as substrate after 60 mins by ELISA
# [28] = molecular target: T1, Fibroblast growth factor receptor 3; experiment: Inhibition of FGFR3 in human UMUC14 cells assessed as reduction in ERK phosphorylation at 1 to 100 nM after 2 hrs by Western blot analysis; assay type: cell-based
# Target sequence in this assay (P22607 23-806 limits assumed): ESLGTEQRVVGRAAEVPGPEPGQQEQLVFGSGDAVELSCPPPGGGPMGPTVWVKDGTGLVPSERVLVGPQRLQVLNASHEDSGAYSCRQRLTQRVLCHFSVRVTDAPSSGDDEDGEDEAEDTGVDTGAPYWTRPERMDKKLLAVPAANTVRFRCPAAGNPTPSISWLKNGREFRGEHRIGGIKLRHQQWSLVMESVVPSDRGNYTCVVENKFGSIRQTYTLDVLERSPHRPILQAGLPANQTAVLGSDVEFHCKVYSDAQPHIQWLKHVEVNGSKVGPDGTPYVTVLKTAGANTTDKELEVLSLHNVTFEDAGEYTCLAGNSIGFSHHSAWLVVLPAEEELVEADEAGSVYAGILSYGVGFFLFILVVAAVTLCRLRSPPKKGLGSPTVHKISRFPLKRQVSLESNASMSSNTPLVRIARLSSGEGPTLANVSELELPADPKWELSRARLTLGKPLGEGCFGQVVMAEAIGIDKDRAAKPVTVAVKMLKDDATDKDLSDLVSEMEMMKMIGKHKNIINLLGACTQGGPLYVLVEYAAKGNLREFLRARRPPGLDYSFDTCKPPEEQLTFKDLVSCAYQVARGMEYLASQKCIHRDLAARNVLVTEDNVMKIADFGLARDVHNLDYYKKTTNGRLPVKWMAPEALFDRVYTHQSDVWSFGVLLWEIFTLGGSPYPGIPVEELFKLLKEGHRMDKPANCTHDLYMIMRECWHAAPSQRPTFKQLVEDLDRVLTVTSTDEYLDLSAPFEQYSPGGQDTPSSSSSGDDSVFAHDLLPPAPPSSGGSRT
# [29] = molecular target: Hepatocyte growth factor receptor (Homo sapiens, UniProt P08581); experiment: Inhibition of recombinant c-MET (unknown origin) using poly (Glu,Tyr) 4:1 as substrate after 60 mins by ELISA
# [30] = organism: Homo sapiens; experiment: Selectivity ratio of IC50 for recombinant VEGFR2 (unknown origin) to IC50 for recombinant FGFR1 (unknown origin)
# [31] = molecular target: Receptor tyrosine-protein kinase erbB-2 (Homo sapiens, UniProt P04626); experiment: Inhibition of recombinant ERBB2 (unknown origin) using poly (Glu,Tyr) 4:1 as substrate after 60 mins by ELISA
# [32] = Tmax in Sprague-Dawley rat at 10 mg/kg, po administered via gavage by HPLC-MS/MS analysis; assay type: ADME, organism-based; details: in vivo
# [33] = molecular target: Epidermal growth factor receptor (Homo sapiens, UniProt P00533); experiment: Inhibition of recombinant EGFR (unknown origin) using poly (Glu,Tyr) 4:1 as substrate after 60 mins by ELISA
# [34] = molecular target: T1, Fibroblast growth factor receptor 3; experiment: Inhibition of FGFR3 phosphorylation in human UMUC14 cells at 1 to 100 nM after 2 hrs by Western blot analysis; assay type: cell-based
# Target sequence in this assay (P22607 23-806 limits assumed): as above
# [35] = system: BaF3; experiment: cells; details: Mus musculus, BaF3, 72 h; remark: listed apart in the source
# Description: Antiproliferative activity against mouse BAF3 cells expressing TEL-fused KDR kinase after 72 hrs by CCK8 or MTT assay
# [36] = molecular target: T3, Fibroblast growth factor receptor 1
# Target sequence in this assay (P11362 whole entry): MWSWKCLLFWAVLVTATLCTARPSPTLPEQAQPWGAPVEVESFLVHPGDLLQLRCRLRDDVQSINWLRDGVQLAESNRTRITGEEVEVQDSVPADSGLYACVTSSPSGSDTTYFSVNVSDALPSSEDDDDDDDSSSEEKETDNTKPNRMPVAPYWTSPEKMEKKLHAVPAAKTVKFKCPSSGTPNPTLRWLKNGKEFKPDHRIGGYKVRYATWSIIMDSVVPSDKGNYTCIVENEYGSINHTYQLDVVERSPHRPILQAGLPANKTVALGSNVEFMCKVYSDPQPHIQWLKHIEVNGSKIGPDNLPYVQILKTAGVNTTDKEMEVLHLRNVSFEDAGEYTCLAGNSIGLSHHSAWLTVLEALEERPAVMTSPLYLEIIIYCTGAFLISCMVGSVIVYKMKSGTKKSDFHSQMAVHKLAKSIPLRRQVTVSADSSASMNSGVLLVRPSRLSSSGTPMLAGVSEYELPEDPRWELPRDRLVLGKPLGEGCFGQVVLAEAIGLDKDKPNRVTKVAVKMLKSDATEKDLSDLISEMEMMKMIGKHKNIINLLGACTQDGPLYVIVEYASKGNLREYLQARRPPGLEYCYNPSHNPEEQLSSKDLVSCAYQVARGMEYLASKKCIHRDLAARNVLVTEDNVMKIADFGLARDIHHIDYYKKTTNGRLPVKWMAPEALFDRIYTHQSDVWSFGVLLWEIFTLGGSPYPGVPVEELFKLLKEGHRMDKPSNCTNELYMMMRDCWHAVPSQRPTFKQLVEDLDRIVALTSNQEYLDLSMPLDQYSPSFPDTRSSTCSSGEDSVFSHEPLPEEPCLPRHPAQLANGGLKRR
# Description: Inhibition of recombinant FGFR1 (unknown origin) using poly (Glu,Tyr) 4:1 as substrate after 60 mins by ELISA
# [37] = Toxicity in nude mouse xenografted with FGFR2 amplified human SNU16 cells assessed as weight loss at 25 to 50 mg/kg, po administered once daily for 21 days relative to control; assay type: organism-based; details: in vivo, 504 h
# [38] = system: Huh-7; experiment: cells; details: Homo sapiens, Huh-7, 72 h
# Description: Antiproliferative activity against FGF19/FGFR4 expressing human HuH7 cells after 72 hrs by CCK8 or MTT assay
# [39] = molecular target: Receptor tyrosine-protein kinase erbB-4 (Homo sapiens, UniProt Q15303); experiment: Inhibition of recombinant ERBB4 (unknown origin) using poly (Glu,Tyr) 4:1 as substrate after 60 mins by ELISA
# [40] = system: OPM-2; experiment: cells; details: Homo sapiens, OPM-2, 72 h
# Description: Antiproliferative activity against FGFR3 amplified human OPM2 cells after 72 hrs by CCK8 or MTT assay
# [41] = molecular target: Platelet-derived growth factor receptor alpha (Homo sapiens, UniProt P16234); experiment: Inhibition of recombinant PDGFRalpha (unknown origin) using poly (Glu,Tyr) 4:1 as substrate after 60 mins by ELISA
# [42] = molecular target: T3, Fibroblast growth factor receptor 1; experiment: Inhibition of FGFR1 in human KG1 cells assessed as reduction in PLCgamma phosphorylation at 5 to 20 nM after 2 hrs by Western blot analysis; assay type: cell-based
# Target sequence in this assay (P11362 22-822 limits assumed): as the sequence (P11362 22-822 limits assumed) above
# [43] = AUC in Sprague-Dawley rat at 10 mg/kg, po administered via gavage by HPLC-MS/MS analysis; assay type: ADME, organism-based; details: in vivo
# [44] = molecular target: T1, Fibroblast growth factor receptor 3; experiment: Inhibition of FGFR3 in human UMUC14 cells assessed as reduction in PLCgamma phosphorylation at 1 to 100 nM after 2 hrs by Western blot analysis; assay type: cell-based
# Target sequence in this assay (P22607 23-806 limits assumed): as the sequence (P22607 23-806 limits assumed) above
# [45] = system: SNU-16; experiment: Antitumor activity against FGFR2 amplified human SNU16 cells xenografted in nude mouse assessed as tumor growth inhibition at 50 mg/kg, po administered once daily for 21 days relative to control; assay type: functional; details: SNU-16, po, 504 h, read-out: TGI
# [46] = Toxicity in nude mouse xenografted with FGFR1 amplified human NCI-H1581 cells assessed as weight loss at 50 to 100 mg/kg, po administered once daily for 14 days relative to control; assay type: organism-based; details: in vivo, 336 h
# Fibroblast growth factor receptor 4, sequence (P22455 whole entry): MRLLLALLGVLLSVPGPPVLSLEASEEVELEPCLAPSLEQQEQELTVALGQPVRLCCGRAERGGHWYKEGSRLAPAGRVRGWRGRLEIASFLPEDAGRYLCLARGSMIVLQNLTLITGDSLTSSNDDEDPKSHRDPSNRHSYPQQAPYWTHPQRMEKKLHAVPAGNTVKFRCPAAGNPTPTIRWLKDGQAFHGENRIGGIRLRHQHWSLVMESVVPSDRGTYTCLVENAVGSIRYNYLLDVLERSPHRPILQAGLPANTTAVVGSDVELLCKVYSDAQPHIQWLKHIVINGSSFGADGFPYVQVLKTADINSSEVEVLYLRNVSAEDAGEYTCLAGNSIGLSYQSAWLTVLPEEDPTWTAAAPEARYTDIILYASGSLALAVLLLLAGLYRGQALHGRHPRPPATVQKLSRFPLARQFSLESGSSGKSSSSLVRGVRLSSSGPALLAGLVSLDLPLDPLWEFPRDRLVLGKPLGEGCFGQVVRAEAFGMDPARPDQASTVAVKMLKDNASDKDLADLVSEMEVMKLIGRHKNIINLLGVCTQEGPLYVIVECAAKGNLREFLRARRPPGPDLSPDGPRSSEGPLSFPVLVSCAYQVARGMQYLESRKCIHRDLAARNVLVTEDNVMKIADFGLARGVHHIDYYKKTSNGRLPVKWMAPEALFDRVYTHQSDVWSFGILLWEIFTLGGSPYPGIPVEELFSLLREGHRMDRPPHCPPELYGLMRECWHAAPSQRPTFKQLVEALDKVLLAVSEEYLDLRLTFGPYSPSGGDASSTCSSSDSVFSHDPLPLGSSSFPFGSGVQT
# Tyrosine-protein kinase BTK, sequence (Q06187 whole entry): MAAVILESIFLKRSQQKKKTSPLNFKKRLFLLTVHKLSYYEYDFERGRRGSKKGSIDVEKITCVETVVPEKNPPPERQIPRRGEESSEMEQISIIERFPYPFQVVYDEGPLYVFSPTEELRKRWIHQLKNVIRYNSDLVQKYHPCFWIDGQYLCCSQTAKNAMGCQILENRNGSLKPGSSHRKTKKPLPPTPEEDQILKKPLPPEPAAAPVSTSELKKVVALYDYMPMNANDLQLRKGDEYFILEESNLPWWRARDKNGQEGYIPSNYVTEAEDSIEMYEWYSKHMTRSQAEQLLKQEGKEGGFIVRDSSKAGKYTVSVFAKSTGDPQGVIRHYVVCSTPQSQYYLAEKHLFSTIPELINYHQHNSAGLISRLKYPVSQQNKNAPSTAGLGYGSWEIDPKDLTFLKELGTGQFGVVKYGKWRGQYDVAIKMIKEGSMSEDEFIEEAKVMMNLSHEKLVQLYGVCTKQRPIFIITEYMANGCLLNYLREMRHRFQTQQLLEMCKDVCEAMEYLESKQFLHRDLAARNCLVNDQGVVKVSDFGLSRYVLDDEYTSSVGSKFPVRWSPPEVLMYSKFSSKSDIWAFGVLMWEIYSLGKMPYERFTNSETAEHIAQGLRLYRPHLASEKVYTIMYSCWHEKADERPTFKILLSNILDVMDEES
structure (smiles),measurement,setting,value
C=CC(=O)N1CCCC1Cn1cc(-c2cc3cc(C)cc(OC)c3s2)c2c(N)ncnc21 (stereo unspecified),IC50,[1],< 0.3 nM
C=CC(=O)N1CC(n2cc(-c3cc4cc(C)cc(OC)c4s3)c3c(N)nc(Cl)nc32)C1,IC50,[1],207 nM
C=CC(=O)N1CC(n2cc(-c3cc4ccc(OC)cc4s3)c3c(N)ncnc32)C1,IC50,[1],86.1 nM
C=CC(=O)N1CCC(n2cc(-c3cc4cc(C)cc(OC)c4s3)c3c(N)nc(N)nc32)C1 (stereo unspecified),IC50,[1],25.7 nM
C=CC(=O)N1CC[C@H](n2cc(-c3cc4cc(C)cc(OC)c4s3)c3c(N)ncnc32)C1,IC50,[2],> 1000 nM
same,IC50,[3],9.4 nM
same,Cmax,[4],77.7 ng/mL
same,IC50,[5],113 nM
same,inhibition,[6],Active
same,TGI,[7],Dose-dependent effect
same,IC50,[8],0.8 nM
same,IC50,[9],> 1000 nM
same,IC50,[10],< 4.6 nM
same,IC50,[11],< 0.1 nM
same,IC50,[12],< 0.5 nM
same,TGI,[13],Dose-dependent effect
same,inhibition,[14],Active
same,half-life,[15],1.73 h
same,IC50,[16],> 1000 nM
same,inhibition in vivo at 100 mg/kg,[17],98.9%
same,inhibition,[18],Active
same,IC50,[19],> 1000 nM
same,IC50,[20],> 1000 nM
same,IC50,[21],> 1000 nM
same,inhibition,[22],Active
same,IC50,[1],0.3 to 0.5 nM
same,inhibition,[23],Active
same,IC50,[24],5.3 nM
same,IC50,[25],> 1000 nM
same,inhibition,[26],Active
same,IC50,[27],> 1000 nM
same,inhibition,[28],Active
same,IC50,[29],> 1000 nM
same,Ratio IC50,[30],> 350
same,IC50,[31],> 1000 nM
same,Tmax,[32],2.75 h
same,IC50,[33],> 1000 nM
same,inhibition,[34],Active
same,IC50,[35],294 nM
same,IC50,[36],< 0.3 nM
same,Activity,[37],Non-Toxic
same,IC50,[38],< 1.5 nM
same,IC50,[39],> 1000 nM
same,IC50,[40],< 0.5 nM
same,IC50,[41],> 1000 nM
same,inhibition,[42],Active
same,AUC,[43],277 ng·h/mL
same,inhibition,[44],Active
same,inhibition in vivo at 50 mg/kg,[45],85.8%
same,Activity,[46],Non-Toxic
CCN1CCN(c2ccc(Nc3cc(N(C)C(=O)Nc4c(Cl)c(OC)cc(OC)c4Cl)ncn3)cc2)CC1 [INFIGRATINIB],IC50,[10],133 nM
same,IC50,[12],< 0.5 nM
same,IC50,[35],3340 nM
same,IC50,[38],57.2 nM
COc1cc(CCc2cc(NC(=O)c3ccc(N4C[C@@H](C)N[C@@H](C)C4)cc3)n[nH]2)cc(OC)c1 [FEXAGRATINIB],IC50,[10],339 nM
same,IC50,[12],36.4 nM
same,IC50,[35],544 nM
same,IC50,[38],284 nM
same,IC50,[40],83.6 nM
C=CC(=O)N1CC[C@@H](n2cc(-c3cc4cc(C)cc(OC)c4s3)c3c(N)ncnc32)C1,IC50,[1],21.7 nM
same,IC50,[24],82.7 nM
same,IC50,[36],0.6 nM
C=CC(=O)N1CCCC(n2cc(-c3cc4cc(C)cc(OC)c4s3)c3c(N)ncnc32)C1 (stereo unspecified),IC50,[1],227 nM
C=CC(=O)N1CCC(n2cc(-c3cc4cc(C)cc(OC)c4s3)c3c(N)ncnc32)C1 (stereo unspecified),IC50,[1],< 0.3 nM
same,IC50,[24],6.2 nM
same,IC50,[36],< 0.3 nM
C=C(CN(C)C)C(=O)N1CCC(n2cc(-c3cc4cc(C)cc(OC)c4s3)c3c(N)ncnc32)C1 (stereo unspecified),IC50,[1],< 0.3 nM
C=CC(=O)N1CCC(n2cc(-c3cc(OC)cc(OC)c3)c3c(N)ncnc32)C1 (stereo unspecified),IC50,[1],90.2 nM
C=CC(=O)NC1CCC(n2cc(-c3cc4cc(C)cc(OC)c4s3)c3c(N)ncnc32)CC1 (stereo unspecified),IC50,[1],67.9 nM
C=CC(=O)N1CC(n2cc(-c3cc4cc(C)cc(OC)c4o3)c3c(N)ncnc32)C1,IC50,[24],> 1000 nM
C=CC(=O)N1CCC(n2cc(-c3cc4cc(C)cc(OC)c4s3)c3c(N)nc(C)nc32)C1 (stereo unspecified),IC50,[1],254 nM
